Measured values taken from the supplement of paper PMC10307832.

Tests used:
Experiment in all cases: relative viability (nuclei count vs DMSO), 5 days (fraction); higher = more cells survive
Axitinib + Tozasertib = compound: CNC(=O)c1ccccc1Sc1ccc2c(/C=C/c3ccccn3)n[nH]c2c1 [Axitinib] + Cc1cc(Nc2cc(N3CCN(C)CC3)nc(Sc3ccc(NC(=O)C4CC4)cc3)n2)n[nH]1 [Tozasertib] (partner 0.1 µM)
Summary of the method: (§1)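 Nuclei were stained with Hoechst during a one-step fixation (final 0.05% Triton X-100, 1% formaldehyde, 1 ug/ml Hoechst) carried out 5 days after dosing, then counted on 4× images. The cells, lung cancer lines in 1536-well plates, had been dosed by pin tool the day after seeding with one drug alone or a fixed anchor-drug dose plus five library-drug doses (not always all listed) in √10 steps. Relative viability is the nuclei count in treated wells divided by that in vehicle wells, and each value is the median of duplicate plates.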

Bemcentinib + Navitoclax = compound: Nc1nc(Nc2ccc3c(c2)CC[C@@H](N2CCCC2)CC3)nn1-c1cc2c(nn1)-c1ccccc1CCC2 [Bemcentinib] + CC1(C)CCC(c2ccc(Cl)cc2)=C(CN2CCN(c3ccc(C(=O)NS(=O)(=O)c4ccc(N[C@H](CCN5CCOCC5)CSc5ccccc5)c(S(=O)(=O)C(F)(F)F)c4)cc3)CC2)C1 [Navitoclax] (partner 0.5 µM)
Summary of the method: as §1

Axitinib + Bortezomib = compound: CNC(=O)c1ccccc1Sc1ccc2c(/C=C/c3ccccn3)n[nH]c2c1 [Axitinib] + CC(C)C[C@H](NC(=O)[C@H](Cc1ccccc1)NC(=O)c1cnccn1)B(O)O [Bortezomib] (partner 0.002 µM)
Summary of the method: as §1

Bemcentinib + Pemetrexed = compound: Nc1nc(Nc2ccc3c(c2)CC[C@@H](N2CCCC2)CC3)nn1-c1cc2c(nn1)-c1ccccc1CCC2 [Bemcentinib] + Nc1nc2[nH]cc(CCc3ccc(C(=O)N[C@@H](CCC(=O)O)C(=O)O)cc3)c2c(=O)[nH]1 [Pemetrexed] (partner 0.2 µM)
Summary of the method: as §1

Row | Cell Line | relative viability (Axitinib + Tozasertib; first compound 0.005 µM) | relative viability (Axitinib + Tozasertib; first compound 0.01581 µM) | relative viability (Axitinib + Tozasertib; first compound 0.05 µM) | relative viability (Axitinib + Tozasertib; first compound 0.1581 µM) | relative viability (Axitinib + Tozasertib; first compound 0.5 µM) | relative viability (Bemcentinib + Navitoclax; first compound 0.1265 µM) | relative viability (Bemcentinib + Navitoclax; first compound 0.4 µM) | relative viability (Bemcentinib + Navitoclax; first compound 1.265 µM) | relative viability (Bemcentinib + Navitoclax; first compound 4 µM) | relative viability (Axitinib + Bortezomib; first compound 0.005 µM) | relative viability (Axitinib + Bortezomib; first compound 0.01581 µM) | relative viability (Axitinib + Bortezomib; first compound 0.05 µM) | relative viability (Axitinib + Bortezomib; first compound 0.1581 µM) | relative viability (Axitinib + Bortezomib; first compound 0.5 µM) | relative viability (Bemcentinib + Pemetrexed; first compound 0.04 µM) | relative viability (Bemcentinib + Pemetrexed; first compound 0.1265 µM) | relative viability (Bemcentinib + Pemetrexed; first compound 0.4 µM) | relative viability (Bemcentinib + Pemetrexed; first compound 1.265 µM) | relative viability (Bemcentinib + Pemetrexed; first compound 4 µM) | relative viability (Bemcentinib + Navitoclax; first compound 0.04 µM)
1 | NCI-H2228 | 0.266 | 0.289 | 0.308 | 0.293 | 0.291 | 1.06 | 1.15 | 0.909 | 1.08 | 1.31 | 0.829 | 0.886 | 0.954 | 1.07 | 0.325 | 0.346 | 0.351 | 0.34 | 0.321 | –
2 | HCC-827 | 0.443 | 0.417 | 0.424 | 0.466 | 0.449 | 1.04 | 1.07 | 0.957 | 1.02 | 1.11 | 1.06 | 1.04 | 1.02 | 1.15 | 0.267 | 0.267 | 0.266 | 0.262 | 0.286 | 1.03
3 | EPLC-272H | 0.247 | 0.223 | 0.204 | 0.23 | 0.242 | 1.04 | 1.19 | 1.33 | 1.43 | 0.986 | 0.804 | 0.857 | 0.994 | 0.892 | 0.313 | 0.337 | 0.371 | 0.319 | 0.291 | –
4 | SW 1573 | 0.169 | 0.214 | 0.166 | 0.178 | 0.249 | 0.979 | 1.09 | 1.18 | 0.97 | 1.19 | 1.05 | 0.944 | 0.923 | 0.994 | 0.944 | 0.865 | 0.89 | 0.839 | 0.725 | 0.868
